Target: T1, mouse Tas2r108 (Mus musculus, UniProt Q9JKT3)
T1 construct: expressed in transfected cells; host or cells: HEK293T-Gα16gust44
T1 sequence (Q9JKT3 1-297): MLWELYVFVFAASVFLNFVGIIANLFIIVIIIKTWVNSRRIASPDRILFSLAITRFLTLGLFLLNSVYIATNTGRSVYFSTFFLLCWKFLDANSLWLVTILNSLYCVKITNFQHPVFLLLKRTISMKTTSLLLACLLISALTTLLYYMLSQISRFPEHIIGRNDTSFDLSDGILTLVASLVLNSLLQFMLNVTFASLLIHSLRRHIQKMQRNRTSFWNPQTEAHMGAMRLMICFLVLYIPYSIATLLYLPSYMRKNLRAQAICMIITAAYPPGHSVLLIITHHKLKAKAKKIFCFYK
Experiment: Calcium imaging assay (FLIPR), HEK293T-Gα16gust44 cells transfected with mouse Tas2r108
Type: cell-based
Description: This set of bile acids was chosen because of their commercial availability in high purities, their diversity within the class of bile acids and their previous detection and quantitation in human blood. Stock solutions were prepared in DMSO.
As basal growth medium for the HEK293T-Gα16gust44 cell line[17],[59] served Dulbecco’s modified eagle medium (DMEM) (Thermo Fisher Scientific, Darmstadt, Germany) supplemented with 10 % fetal bovine serum (Sigma-Aldrich, Steinheim, Germany), 2 mM L-glutamine (Sigma-Aldrich, Steinheim, Germany), 100 units/ml penicillin (Sigma Aldrich, Steinheim, Germany) and 100 µg/ml streptomycin (Sigma Aldrich, Steinheim, Germany). Growth conditions were 37 °C, 5 % CO2 and saturated air-humidity[60].
HEK293T-Gα16gust44 cells were seeded on poly-D-lysine (10 µg/ml) coated 96-well plates to reach a confluence of 40-60 % the next day. For transient transfection 150 ng of plasmid DNA containing the receptor of interest and 0.3 µl lipofectamine 2000 (Thermo Fisher Scientific, Darmstadt, Germany) per well were used and transfection took place according to the manual of lipofectamine 2000. […] The empty vector DNA (mock) was transfected as negative control[14],[41].
Cells were loaded using the calcium-sensitive fluorescent dye Fluo-4-AM (Abcam, Cambridge, Great Britain) in the presence of 2.5 mM probenecid (Sigma-Aldrich, Steinheim, Germany) the day after transfection[13],[41]. 1 h after loading, cells were washed with C1 buffer using a BioTek Cell Washer, incubated in the dark for half an hour and washed again. For automated agonist application and measurement of fluorescence changes, a FLIPR^TETRA device (Molecular Devices, San José, United States) was used. Viability of cells was tested by application of 100 nM Somatostatin 14 (Bachem, Bubendorf, Switzerland)[42].
Measured data were negative control corrected by subtracting the signal of the mock-transfected cells and exported to Microsoft Excel using the FLIPR software ScreenWorks 4.2. In Microsoft Excel software, standardization of maximum fluorescence intensities to the basal fluorescence and normalization to the buffer-only control was done to calculate the relative fluorescence changes (ΔF/F).
Initial screening experiments performed in duplicate wells were confirmed by at least one replication and representative traces were selected for display. All dose-response relationships were determined by three independent experiments (biological replicates) performed in duplicates (technical replicates). Threshold concentrations, defined as lowest substance concentrations leading to statistically significant elevated fluorescence changes in receptor-transfected cells compared with empty vector-transfected cells, were determined using SigmaPlot with Student’s t-test to evaluate statistical significance (p < 0.01).

## C[C@H](CCC(=O)O)[C@H]1CC[C@H]2[C@@H]3CC[C@@H]4C[C@H](O)CC[C@]4(C)[C@H]3C[C@H](O)[C@]12C [Deoxycholic Acid, deoxycholic acid]
Time 0 s
  RLU: 0 RLU
Time 2 s
  RLU: 10.4901 RLU
Time 4 s
  RLU: 7.695 RLU
Time 6 s
  RLU: 13.3996 RLU
Time 8 s
  RLU: 21.0752 RLU
Time 12 s
  RLU: 15.5762 RLU
Time 14 s
  RLU: 3.43 RLU
Time 16 s
  RLU: -9.281 RLU
Time 18 s
  RLU: 0.8467 RLU
Time 137.562 s
  RLU: 460.71 RLU
Time 143.562 s
  RLU: 496.814 RLU
Time 149.562 s
  RLU: 503.436 RLU
Time 155.562 s
  RLU: 499.263 RLU
Time 161.562 s
  RLU: 506.022 RLU
Time 167.562 s
  RLU: 509.176 RLU
Time 173.562 s
  RLU: 514.108 RLU
Time 179.562 s
  RLU: 522.581 RLU
Time 185.562 s
  RLU: 531.86 RLU
Time 191.562 s
  RLU: 528.694 RLU
Time 197.562 s
  RLU: 533.421 RLU
Time 203.562 s
  RLU: 538.761 RLU
Time 209.562 s
  RLU: 521.511 RLU
Time 215.562 s
  RLU: 533.378 RLU
Time 221.562 s
  RLU: 492.546 RLU
Time 227.562 s
  RLU: 477.486 RLU
Time 233.562 s
  RLU: 488.911 RLU
Time 239.562 s
  RLU: 493.745 RLU
Time 245.562 s
  RLU: 495.953 RLU
Time 293.562 s
  RLU: 458.186 RLU
Time 299.562 s
  RLU: 441.037 RLU
Time 305.562 s
  RLU: 416.756 RLU
Time 311.562 s
  RLU: 430.852 RLU
Time 317.562 s
  RLU: 450.794 RLU
Time 323.562 s
  RLU: 427.048 RLU
Time 329.562 s
  RLU: 431.797 RLU
Time 335.562 s
  RLU: 432.3 RLU
Time 341.562 s
  RLU: 422.32 RLU
Time 347.562 s
  RLU: 429.258 RLU
Time 353.562 s
  RLU: 427.233 RLU
Time 359.562 s
  RLU: 399.693 RLU
P < 0.01 vs empty vector
  Activation threshold concentration Tas2r108: 10 µM
Time 18.797 s
  RLU: 15.4 RLU
Time 20.797 s
  RLU: -4.333 RLU
Time 22.797 s
  RLU: -28.7534 RLU
Time 24.797 s
  RLU: -22.8768 RLU
Time 26.797 s
  RLU: 16.5718 RLU
Time 28.797 s
  RLU: 18.9437 RLU
Time 30.797 s
  RLU: 58.8166 RLU
Time 32.797 s
  RLU: 83.6402 RLU
Time 34.797 s
  RLU: 79.9664 RLU
Time 36.797 s
  RLU: 112.495 RLU
Time 38.797 s
  RLU: 144 RLU
Time 40.797 s
  RLU: 169.562 RLU
Time 42.797 s
  RLU: 181.196 RLU
Time 44.797 s
  RLU: 204.676 RLU
Time 46.797 s
  RLU: 240.06 RLU
Time 48.797 s
  RLU: 220.167 RLU
Time 50.797 s
  RLU: 217.063 RLU
Time 52.797 s
  RLU: 250.29 RLU
Time 54.797 s
  RLU: 263.514 RLU
Time 56.797 s
  RLU: 298.678 RLU
Time 58.797 s
  RLU: 286.664 RLU
Time 60.797 s
  RLU: 326.636 RLU
Time 62.797 s
  RLU: 300.232 RLU
Time 64.797 s
  RLU: 322.977 RLU
Time 66.797 s
  RLU: 299.438 RLU
Time 68.797 s
  RLU: 333.279 RLU
Time 70.797 s
  RLU: 356.797 RLU
Time 72.797 s
  RLU: 351.722 RLU
Time 74.797 s
  RLU: 354.974 RLU
Time 76.797 s
  RLU: 350.201 RLU
Time 78.797 s
  RLU: 373.335 RLU
Time 80.797 s
  RLU: 363.865 RLU
Time 82.797 s
  RLU: 378.202 RLU
Time 84.797 s
  RLU: 377.793 RLU
Time 86.797 s
  RLU: 374.495 RLU
Time 88.797 s
  RLU: 427.432 RLU
Time 90.797 s
  RLU: 391.234 RLU
Time 92.797 s
  RLU: 431.574 RLU
Time 94.797 s
  RLU: 429.345 RLU
Time 96.797 s
  RLU: 437.253 RLU
Time 98.797 s
  RLU: 431.746 RLU
Time 100.797 s
  RLU: 440.351 RLU
Time 102.797 s
  RLU: 434.297 RLU
Time 104.797 s
  RLU: 432.91 RLU
Time 106.797 s
  RLU: 451.262 RLU
Time 108.797 s
  RLU: 460.201 RLU
Time 110.797 s
  RLU: 466.157 RLU
Time 112.797 s
  RLU: 486.092 RLU
Time 114.797 s
  RLU: 411.046 RLU
Time 116.797 s
  RLU: 482.073 RLU
Time 118.797 s
  RLU: 468.374 RLU
Time 120.797 s
  RLU: 468.931 RLU
Time 122.797 s
  RLU: 478.657 RLU
Time 124.797 s
  RLU: 472.922 RLU
Time 126.797 s
  RLU: 476.391 RLU
Time 128.797 s
  RLU: 502.505 RLU
Time 130.797 s
  RLU: 473.229 RLU
Time 132.797 s
  RLU: 511.515 RLU
Time 134.797 s
  RLU: 493.882 RLU
Time 136.797 s
  RLU: 440.117 RLU
